Measurements from patent US9951044B2, “Quinazoline derivatives and their use as DNA methyltransferase inhibitors” (PIERRE FABRE MEDICAMENT, priority 2013, dated 2018).

How the values were obtained:
[1] = target: T1, human C-terminal DNMT3A (a.a. 623-908) (Homo sapiens, UniProt Q9Y6K1); assay: DNMT3A assay (restriction-based fluorescence); assay type: biochemical; conditions: for inhibition at 10 µM: compound at 10 μM, read-out: DNMT3A (% of inhibition) 10 μM; for inhibition at 20 µM: compound at 20 μM; for inhibition at 32 µM: compound at 32 μM, read-out: DNMT3A (% of inhibition) 32 μM; for EC50: concentration range in triplicates
T1 construct: The human C-terminal DNMT3A (a.a. 623-908); made in house
Text: DNMT3A enzyme inhibition was adapted from the restriction-based fluorescence assay protocol described in Ceccaldi et al. (ChemBioChem 2011, 12, 1337-45). Briefly, a 5′-labelled biotin oligonucleotide is hybridized to its complementary strand labelled with 6-carboxyfluorescein at the 3′-end into a 384 well microplate (black Optiplates; Perkin Elmer) pre-coated with avidin. The duplex contains a unique CpG site overlapping with a restriction site of a methylation sensitive restriction enzyme. The human C-terminal DNMT3A (a.a. 623-908), produced as described in Gros et al. (Nucleic Acids Research 2013 Aug. 25), was added in each well (200 ng/well) and mixed with the chemical compounds at desired concentrations and freshly prepared AdoMet (20 μM final concentration) to start the reaction in a total volume of 50 μL. After 1 hour incubation at 37° C. each well were washed three times with PBS, Tween-20 0.05%, NaCl (500 mM) and three more times with PBST. Specific fluorescent signals were detected with the methylation-sensitive restriction enzyme HpyCH4IV (NEB) as described and measured on a Perkin Elmer Envision detector. The percentage of inhibition is reported. The formula used to calculate the percentage of inhibition is [(X−Y)/X]×100, where X is the signal determined in the absence of the inhibitor and Y is the signal obtained in the presence of the inhibitor. The concentration at which 50% of efficacy of inhibition is observed (EC50) was determined by analysis of a concentration range of the tested compound in triplicates. The non-linear regression fittings with sigmoidal dose-response (variable slope) were performed with GraphPad Prism 4.03 (GraphPad Software).

[2] = target: T2, His-DNMT1 (182 kDa, human) (Homo sapiens, UniProt P26358); assay: DNMT1 assay ([methyl-3H] SAM Flashplate); assay type: biochemical; conditions: for inhibition at 100 µM: compound at 100 μM, read-out: DNMT1 (% of inhibition) 100 μM; for inhibition at 32 µM: compound at 32 μM, read-out: DNMT1 (% of inhibition) 32 μM
T2 construct: His; made in house
Procedure: His-DNMT1 (182 kDa, human) was cloned, expressed and purified as described in Halby et al. (ChemBioChem 2012, 13, 157-65). The reaction was performed in a 10 μL total reaction volume in low volume NBS™ 384-well microplates (Corning), containing the tested compound (up to 1% DMSO), 1 μM of a SAM/[methyl-^3H] SAM (3 TBq/mmol, PerkinElmer) mix in a ratio of 3-to-1 (isotopic dilution 1*:3), 0.3 μM of biotinylated hemimethylated DNA duplex (5′-GATmCGCmCGATGmCGmCGAATmCGmCGAT mCGATGmCGAT-3′ and BIOT-5′-[…] ATC-3′), and 90 nM of DNMT1 in methylation buffer (20 mM HEPES pH 7.2, 1 mM EDTA, 50 mM KCl, 25 μg/mL BSA). The reaction was incubated at 37° C. for 2 hours. 8 μL are then transferred into a streptavidin 96-well scintillant coated Flashplate™ (PerkinElmer) containing 190 μL of 20 μM SAH in 50 mM Tris-HCl pH 7.4. The Flashplate™ was agitated at room temperature for 1 hour, washed three times with 200 μL of 0.05% Tween®-20 in 50 mM Tris-HCl pH 7.4, and read in 200 μL of 50 mM Tris-HCl pH 7.4 on TopCount NXT (PerkinElmer).

[3] = system: KG-1 human leukemia cells; assay: Anti-proliferative activity on KG-1 cells (ATPLite); assay type: cell-based; conditions: KG-1, 96 h, treatment days 1-3, viability day 4, mean of at least two experiments, 95% confidence interval in brackets
Procedure: (§1) KG-1 and Karpas299 human leukemia cells were obtained from the ATCC (USA) and cultivated in RPMI 1640 medium (with HEPES and Glutamine, BE12-115F, Lonza, France) supplemented with, respectively, 20% and 15% foetal calf serum (Lonza, France), at 37° C. and under 5% CO2. To measure the anti-proliferative properties of tested molecules, 2×10^4 cells are seeded at day 0 in a 96 wells plate. The compounds to be tested, stored at −20° C. as 10^−2 M stock solution in 100% DMSO, are freshly diluted on day 1 in RPMI 1640 medium, before adding a dose range of 3.2 nM to 10 μM to the cells. This treatment is repeated on day 2 and 3, and on day 4 cell viability is assessed using the ATPLite kit from Perkin (ATPlite 1 Step Luminescence Assay System, ref 3016739), following the provider instructions. The raw data are analyzed with GraphPad Prism software (v4.03) to generate EC50 values corresponding to the compound concentrations giving 50% reduction in cell viability. The values presented are the mean results of at least two independent experiments.

[4] = system: PANC1 cells (human pancreatic carcinoma cells); assay: Anti-proliferative activity on PANC1 cells (ATPlite one step); assay type: cell-based; conditions: PANC-1, 72 h incubation
Procedure: (§2) The antiproliferative activity of compounds was measured in vitro using the ATP quantification method “ATPlite one step assay” (Perkin Elmer ref 6016739) according to the manufacturer conditions.
(§3) Briefly, WM266.4 cells (human melanoma cells) (5×10^4 cells per ml in RPMI1640 medium, 10% FBS, 2 mM glutamine, 50 U/mL penicillin/streptomycin and 1.25 μg/mL fungizone), PANC1 cells (human pancreatic carcinoma cells) (2×10^4 cells per ml in DMEM medium, 10% FBS, 2 mM glutamine, 50 U/mL penicillin/streptomycin and 1.25 μg/mL fungizone), and U87MG cells (human neuronal gliablastoma-astrocytoma-cells) (3×10^4 cells per ml in MEM medium, 10% FBS, 2 mM glutamine, 50 U/mL penicillin/streptomycin and 1.25 μg/mL fungizone) were seeded in 96-well plates, incubated for 24 h and treated with 8 increasing concentrations of test compounds diluted in cells respective mediums, or vehicle in triplicate.
(§4) Cells were then incubated for 72 h at 37° C. in humidified 5% CO2 atmosphere.
(§5) At the end of the experiment, cell viability was evaluated by determining the level of ATP released by viable cells.
(§6) EC50 values were determined with curve fitting analysis method (non linear regression model with a sigmoid dose response, variable Hill slope coefficient) provided by the Prism Software (GraphPad). […]

[5] = system: U87MG cells (human neuronal gliablastoma-astrocytoma-cells); assay: Anti-proliferative activity on U87MG cells (ATPlite one step); assay type: cell-based; conditions: U-87 MG, 72 h incubation
Procedure: as §2, §3, §4, §5, §6

[6] = system: WM266.4 cells (human melanoma cells); assay: Anti-proliferative activity on WM266.4 cells (ATPlite one step); assay type: cell-based; conditions: WM 266-4, 72 h incubation, read-out: EC50 (μM) WN226.4
Procedure: as §2, §3, §4, §5, §6

[7] = system: Karpas299 human leukemia cells; assay: Anti-proliferative activity on Karpas 299 cells (ATPLite); assay type: cell-based; conditions: KARPAS-299, 96 h, treatment days 1-3, viability day 4, mean of at least two experiments, 95% confidence interval in brackets
Procedure: as §1

T2 sequence (P26358 whole entry): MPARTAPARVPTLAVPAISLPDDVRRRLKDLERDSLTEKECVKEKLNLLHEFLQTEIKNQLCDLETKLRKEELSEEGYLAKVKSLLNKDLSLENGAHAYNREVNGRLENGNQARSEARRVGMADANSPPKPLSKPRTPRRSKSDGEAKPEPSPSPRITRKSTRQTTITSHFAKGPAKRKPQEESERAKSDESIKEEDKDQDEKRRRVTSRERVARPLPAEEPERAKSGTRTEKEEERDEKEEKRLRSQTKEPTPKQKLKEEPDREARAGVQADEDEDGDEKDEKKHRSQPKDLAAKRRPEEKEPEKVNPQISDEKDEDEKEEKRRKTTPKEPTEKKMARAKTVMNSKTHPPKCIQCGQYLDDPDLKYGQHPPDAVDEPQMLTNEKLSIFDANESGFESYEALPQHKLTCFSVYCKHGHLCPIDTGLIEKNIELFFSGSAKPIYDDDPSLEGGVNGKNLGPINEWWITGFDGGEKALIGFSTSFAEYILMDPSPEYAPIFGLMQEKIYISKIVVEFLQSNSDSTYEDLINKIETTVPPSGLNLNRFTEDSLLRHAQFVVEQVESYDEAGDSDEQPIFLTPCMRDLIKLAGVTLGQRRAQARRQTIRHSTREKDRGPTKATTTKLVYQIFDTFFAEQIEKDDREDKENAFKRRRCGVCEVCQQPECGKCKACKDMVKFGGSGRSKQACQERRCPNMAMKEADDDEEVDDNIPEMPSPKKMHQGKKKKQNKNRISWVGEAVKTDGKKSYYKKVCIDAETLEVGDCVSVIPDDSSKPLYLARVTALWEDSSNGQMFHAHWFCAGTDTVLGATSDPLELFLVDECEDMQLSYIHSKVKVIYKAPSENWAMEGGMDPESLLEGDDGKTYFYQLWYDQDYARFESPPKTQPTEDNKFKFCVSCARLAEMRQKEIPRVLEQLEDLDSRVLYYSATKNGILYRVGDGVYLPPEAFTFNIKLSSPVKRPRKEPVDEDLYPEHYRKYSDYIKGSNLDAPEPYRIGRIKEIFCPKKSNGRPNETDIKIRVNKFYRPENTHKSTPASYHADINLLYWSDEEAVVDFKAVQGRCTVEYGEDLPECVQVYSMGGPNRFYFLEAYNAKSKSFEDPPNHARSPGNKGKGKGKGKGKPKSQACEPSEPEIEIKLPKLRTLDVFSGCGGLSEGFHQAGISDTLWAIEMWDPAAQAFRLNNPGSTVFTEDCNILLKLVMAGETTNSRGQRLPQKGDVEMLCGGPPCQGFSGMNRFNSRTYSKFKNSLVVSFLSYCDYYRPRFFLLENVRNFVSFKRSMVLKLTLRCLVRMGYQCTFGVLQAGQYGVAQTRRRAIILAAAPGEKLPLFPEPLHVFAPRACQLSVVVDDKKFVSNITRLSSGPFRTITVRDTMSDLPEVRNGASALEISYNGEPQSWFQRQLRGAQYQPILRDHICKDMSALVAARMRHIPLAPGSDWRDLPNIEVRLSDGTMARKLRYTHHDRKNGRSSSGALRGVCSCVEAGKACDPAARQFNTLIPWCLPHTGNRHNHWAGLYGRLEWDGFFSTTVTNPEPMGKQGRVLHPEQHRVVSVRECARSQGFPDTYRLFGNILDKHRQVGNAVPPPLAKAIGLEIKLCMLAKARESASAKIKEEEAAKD
T1 sequence (Q9Y6K1 627-912 limits assumed): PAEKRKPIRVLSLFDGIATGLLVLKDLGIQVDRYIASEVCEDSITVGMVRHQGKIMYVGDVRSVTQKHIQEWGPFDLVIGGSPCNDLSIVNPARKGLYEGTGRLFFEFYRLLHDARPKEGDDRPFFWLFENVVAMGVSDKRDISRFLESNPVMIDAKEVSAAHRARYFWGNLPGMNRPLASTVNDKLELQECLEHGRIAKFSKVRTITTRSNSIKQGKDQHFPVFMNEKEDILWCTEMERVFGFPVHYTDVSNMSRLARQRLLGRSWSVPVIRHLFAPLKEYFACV

Structure (SMILES)	inhibition at 10 µM [1] [%]	inhibition at 20 µM [1] [%]	inhibition at 32 µM [1] [%]	EC50 [1] [µM]	inhibition at 100 µM [2] [%]	EC50 [3] [µM]	EC50 [4] [µM]	EC50 [5] [µM]	EC50 [6] [µM]	inhibition at 32 µM [2] [%]	EC50 [7] [µM]
c1ccc(CCCNc2ncnc3cc(OCCCNCCNc4ccnc5ccccc45)ccc23)cc1 [Compound F, 7-(3-((2-(quinolin-4-ylamino)ethyl)amino)propyloxy)-4-((3-phenylpropyl)amino)quinazoline]	59	76	87	10	90						
c1ccc(CCCNc2ncnc3cc(OCC4CCN(CCNc5ccnc6ccccc56)CC4)ccc23)cc1 [Compound G, 4-((3-phenylpropyl)amino)-7-((1-(2-(quinolin-4-ylamino)ethyl)piperidin-4-yl)methoxy)quinazoline]	81	97		2.4	91.2	0.5	1.2	8.9	3.9	24.5	1.8
CCCNc1ncnc2cc(OCC3CCN(CCNc4ccnc5ccccc45)CC3)ccc12 [Compound H, 4-propylamino-7-((1-(2-(quinolin-4-ylamino)ethyl)piperidin-4-yl)methoxy)quinazoline]	28	44	69		94.9						
Nc1ncnc2cc(OCC3CCN(CCNc4ccnc5ccccc45)CC3)ccc12 [Compound I, 4-amino-7-((1-(2-(quinolin-4-ylamino)ethyl)piperidin-4-yl)methoxy)quinazoline]	16	32	68		99.3						
c1ccc(CCCNc2ncnc3cc(OCC4CCN(CCNc5ccncc5)CC4)ccc23)cc1 [Compound J, 4-(3-phenylpropylamino)-7-((1-(2-(pyridin-4-ylamino)ethyl)piperidin-4-yl)methoxy)quinazoline]	47	65	72		33.7						
O=c1c2ccc(OCC3CCN(CCNc4ccnc5ccccc45)CC3)cc2ncn1CCNc1ccnc2ccccc12 [Compound M]	89		91	1.1	100	1.3				100	0.7
c1ccc(-c2ccc(CNc3ncnc4cc(OCC5CCN(CCNc6ccnc7ccccc67)CC5)ccc34)cc2)cc1 [Compound N, 4-([1,1′-biphenyl]-4-ylmethylamino)-7-((1-(2-(quinolin-4-ylamino)ethyl)piperidin-4-yl)methoxy)quinazoline]	86		83		69	0.4				24	
c1ccc(CCNc2ncnc3cc(OCC4CCN(CCNc5ccnc6ccccc56)CC4)ccc23)cc1 [Compound O, 4-(3-phenethylamino)-7-((1-(2-(quinolin-4-ylamino)ethyl)piperidin-4-yl)methoxy)quinazoline]	80		99		98.4					38	
c1ccc(CNc2ncnc3cc(OCC4CCN(CCNc5ccnc6ccccc56)CC4)ccc23)cc1 [Compound P, 4-(3-benzylamino)-7-((1-(2-(quinolin-4-ylamino)ethyl)piperidin-4-yl)methoxy)quinazoline]	43		81	13.1	22					26	
Cc1cc(NCCNc2ncnc3cc(OCC4CCN(CCNc5ccnc6ccccc56)CC4)ccc23)nc(N)n1 [Compound Q, 6-methyl-N^4-(2-((7-((1-(2-(quinolin-4-ylamino)ethyl)piperidin-4-yl)methoxy)quinazolin-4-yl)amino)ethyl)pyrimidine-2,4-diamine]	61		68	5.7	99.6					74	
O=c1c2ccc(OCC3CCN(CCNc4ccnc5ccccc45)CC3)cc2ncn1CCCc1ccccc1 [Compound R, 3-(3-phenylpropyl)-7-((1-(2-(quinolin-4-ylamino)ethyl)piperidin-4-yl)methoxy)quinazolinone]	65		99		98.4					45	
c1ccc(CCCNc2ncnc3cc(OCCNc4ccnc5ccccc45)ccc23)cc1 [Compound S, 4-(3-phenylpropylamino)-7-(2-(quinolin-4-ylamino)ethoxy)quinazoline]	52		95		90						
